Experimental findings from article PMC12683216, “Using High‐Throughput Screening to Identify Crosslinking Peptides That Control Cell‐Mediated Matrix Degradation” (Advanced Healthcare Materials, 2025) are described below.

Like-named read-outs stand apart in the source and are kept apart here. Where a SMILES comes first, the peptide text is derived from it. [ ]: non-standard residue; d: D form. βAla = NCCC(=O)O

The term fraction remaining denotes the share of the starting amount still present when the sample was taken.

What all share (type): in vitro ADME, human
Data set [1] concerns MMP-14. The experiment in a line: Soluble peptide degradation, Cells condition (LC-MS). As to conditions: human. The procedure, abridged: (§1)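 Pooled synthetic TAILS-derived peptides added to hUVEC or hMSC cultures (Cells) or cell-free conditioned media (Media); MMP-14 inhibitor NSC 405 020 at 10 µM final. Samples taken at 0 and 24 h, acidified, analysed by LC-MS; peak areas normalised to 50 µM βFβA6 internal standard, 24 h/0 h gives fraction remaining.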

Experiment in data set [2]: as above
As to conditions: human. The procedure, abridged:
as §1

The nature of data set [3]: Soluble peptide degradation, Media condition (cell-conditioned media, LC-MS). The conditions noted are these: for remaining at 24 h: hMSC-conditioned media without cells (Media condition), Figure 3B heatmap, split-and-pool libraries KLVADX1X2ASAE in hMSC-conditioned media without cells, N = 2, read-out: Fraction of peptide remaining after 24 hours: hMSC Media. The procedure, abridged: (§2)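 Pooled peptide library added to medium conditioned by hUVECs or hMSCs with cells removed. Fraction remaining after 24 h measured by LC-MS (positive-ion ESI). Value is peptide peak area relative to 50 µM non-degradable βFβA6 internal standard.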

In data set [4] the test system is hUVECs. The experiment in a line: Soluble peptide degradation, Cells condition (LC-MS). The conditions noted are these: Figure 3B heatmap; split-and-pool libraries KLVADX1X2ASAE in media on hUVECs; 24 h; LC-MS, ratio to βFβA6; N = 2. A digest of the protocol: as §1
Data set [5] concerns hMSCs. The description is as above. As to conditions: Figure 3C; individually synthesized soluble peptide, 50 µM, media on hMSCs; 24 h; LC-MS, ratio to βFβA6; N = 6. The procedure, abridged: as §1
The nature of data set [6]: Soluble peptide degradation, Media condition (cell-conditioned media, LC-MS). As to conditions: 24 h, LC-MS, ratio to βFβA6. A digest of the protocol:
as §2

Setting [7] is: hMSCs in culture with fresh media (Cells condition), Figure 3B heatmap, split-and-pool libraries KLVADX1X2ASAE (19 or 38 peptides per library) in media on hMSCs, 24 h, LC-MS, ratio to βFβA6, N = 2, read-out: Fraction of peptide remaining after 24 hours: hMSC Cells.
The mark [8] stands for this setting: human, 24 h, LC-MS, ratio to βFβA6.

Regarding `CC(=O)NCCC(=O)N[C@@H](CCCCN)C(=O)N[C@@H](CC(C)C)C(=O)N[C@H](C(=O)N[C@@H](C)C(=O)N[C@@H](CC(=O)O)C(=O)N1CCC[C@H]1C(=O)N[C@@H](CC(C)C)C(=O)N[C@@H](C)C(=O)N[C@@H](CO)C(=O)N[C@@H](C)C(=O)N[C@@H](CCC(=O)O)C(=O)NCCC(N)=O)C(C)C` [KLVAD-PL] (Ac-[βAla]KLVADPLASAE[βAla]-NH2), the fraction remaining at 24 h, 50 µM in data set [1] (cells or culture medium) was determined as 99%; in data set [1] (cells or culture medium, Fraction of peptide remaining after 24 hours: hMSC +Inhibitor) it was 94%; in data set [3] (human, cells or culture medium) it was 91%. Also, the share remaining at 24 h in data set [2] (cells or culture medium) came to 83%; in data set [2] (cells or culture medium, Fraction of peptide remaining after 24 hours: hMSC Cells) it was 51%.
Consider `CC(=O)NCCC(=O)N[C@@H](CCCCN)C(=O)N[C@@H](CC(C)C)C(=O)N[C@H](C(=O)N[C@@H](C)C(=O)N[C@@H](CC(=O)O)C(=O)N[C@@H](Cc1ccc(O)cc1)C(=O)N[C@@H](Cc1c[nH]c2ccccc12)C(=O)N[C@@H](C)C(=O)N[C@@H](CO)C(=O)N[C@@H](C)C(=O)N[C@@H](CCC(=O)O)C(=O)NCCC(N)=O)C(C)C` [KLVAD-YW] (Ac-[βAla]KLVADYWASAE[βAla]-NH2), for which the fraction remaining at 24 h, 50 µM in data set [1] (with NSC 405 020 (MMP-14 inhibitor), Figure 3C, 50 µM peptide, media on hMSCs with MMP-14 inhibitor NSC 405 020 10 µM, 24 h, LC-MS, N = 6, read-out: Fraction of peptide remaining after 24 hours: hMSC +Inhibitor) was found to be 76%; in data set [1] (with NSC 405 020 (MMP-14 inhibitor), Figure 3C, 50 µM peptide, media on hUVECs with MMP-14 inhibitor NSC 405 020 10 µM, 24 h, LC-MS, N = 6, read-out: Fraction of peptide remaining after 24 hours: hUVEC +Inhibitor), 98%; in data set [2] (hUVECs in culture with fresh media (Cells condition), Figure 3C, individually synthesized soluble peptide, 50 µM, media on hUVECs, 24 h, LC-MS, ratio to βFβA6, N = 6, read-out: Fraction of peptide remaining after 24 hours: hUVEC Cells) it was 72%. In data set [4], the “Fraction of peptide remaining after 24 hours: hUVEC Cells” value amounted to 0.86. Moreover, the share remaining at 24 h turned out to be 53% in data set [2] (setting [7]) and 78% in data set [3] (setting [8]). Besides, the “Fraction of peptide remaining after 24 hours: hMSC Cells” value in data set [5] is 0.4. Further, in data set [3] (Figure 3C, individually synthesized soluble peptide, 50 µM, hMSC-conditioned media without cells, 24 h, LC-MS, ratio to βFβA6, N = 6), the “Fraction of peptide remaining after 24 hours: hMSC Media” value is 0.91. Besides, the “Fraction of peptide remaining after 24 hours: hUVEC Media” value in data set [6] (Figure 3B heatmap, split-and-pool libraries KLVADX1X2ASAE in hUVEC-conditioned media without cells, N = 2) was 0.96; in data set [6] (Figure 3C, individually synthesized soluble peptide, 50 µM, hUVEC-conditioned media without cells, N = 6), 0.92.
For the compound `CC(=O)NCCC(=O)N[C@@H](CCCCN)C(=O)N[C@@H](CC(C)C)C(=O)N[C@H](C(=O)N[C@@H](C)C(=O)N[C@@H](CC(=O)O)C(=O)N[C@@H](CCC(=O)O)C(=O)N1CCC[C@H]1C(=O)N[C@@H](C)C(=O)N[C@@H](CO)C(=O)N[C@@H](C)C(=O)N[C@@H](CCC(=O)O)C(=O)NCCC(N)=O)C(C)C` [Glu-Pro] (Ac-[βAla]KLVADEPASAE[βAla]-NH2), in data set [4], the “Fraction of peptide remaining after 24 hours: hUVEC Cells” value is on record as 0.89. For the same compound, the share remaining at 24 h in data set [2] (setting [7]) is 49%; in data set [3] (setting [8]), 79%; in data set [6] (human, hUVEC-conditioned media without cells (Media condition), Figure 3B heatmap, split-and-pool libraries KLVADX1X2ASAE in hUVEC-conditioned media without cells, N = 2, read-out: Fraction of peptide remaining after 24 hours: hUVEC Media), 96%.
